Results: paper PMC12013494, “Covalent inhibition of the SARS-CoV-2 NiRAN domain via an active-site cysteine” (The Journal of Biological Chemistry, 2025)

Experiments:
[1] = molecular target: T1, SARS-CoV-2 nsp12 NiRAN domain (Severe acute respiratory syndrome coronavirus 2, UniProt P0DTD1); assay: biochemical; settings: for IC50 for NiRAN-dependent AMPylation of nsp9 / IC50: n = 4; for IC50: read-out: IC50 for NiRAN-dependent AMPylation of nsp9
Flag-nsp12 [2] = molecular target: T2, Flag-nsp12 (Severe acute respiratory syndrome coronavirus 2, UniProt P0DTD1); format: cell-based, SARS-CoV-2
SARS-CoV-2-Wu-1-zsGreen = assay: microbe, parasite or virus in culture; format: cell-based; settings: for EC50: Severe acute respiratory syndrome coronavirus 2, read-out: EC50 for viral replication (infectivity)
NiRAN = settings: cited from earlier work
nsp12 = nsp12 (Severe acute respiratory syndrome coronavirus 2, UniProt P0DTD1); format: binding, SARS-CoV-2
[3] = molecular target: T1, SARS-CoV-2 nsp12 NiRAN domain; format: biochemical
SARS-CoV-2 nsp12 = SARS-CoV-2 nsp12 (Severe acute respiratory syndrome coronavirus 2, UniProt P0DTD1); format: binding
SARS-CoV-2 main protease = settings: cited from earlier work
SARS-CoV-2 = settings: cited from earlier work
human SelO = human SelO (Homo sapiens, UniProt Q9BVL4, U667C); format: binding
Sequence of human SelO (Q9BVL4 with tags, fused parts or gaps U667C limits assumed): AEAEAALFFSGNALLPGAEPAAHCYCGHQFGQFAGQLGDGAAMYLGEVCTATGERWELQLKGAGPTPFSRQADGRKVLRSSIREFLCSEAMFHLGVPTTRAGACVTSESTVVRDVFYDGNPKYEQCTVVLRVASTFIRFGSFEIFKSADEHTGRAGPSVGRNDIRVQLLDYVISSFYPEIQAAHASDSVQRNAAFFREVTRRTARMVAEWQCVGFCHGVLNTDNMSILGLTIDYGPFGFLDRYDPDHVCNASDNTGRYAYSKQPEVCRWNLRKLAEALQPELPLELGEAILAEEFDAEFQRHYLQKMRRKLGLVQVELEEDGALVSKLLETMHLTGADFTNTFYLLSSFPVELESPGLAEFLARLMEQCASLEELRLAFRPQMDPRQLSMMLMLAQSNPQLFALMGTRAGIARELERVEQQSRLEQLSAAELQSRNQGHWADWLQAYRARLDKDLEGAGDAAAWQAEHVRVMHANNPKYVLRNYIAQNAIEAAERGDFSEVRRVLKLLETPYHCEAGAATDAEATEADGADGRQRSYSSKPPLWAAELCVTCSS

Flag-nsp12 [4] = molecular target: T2, Flag-nsp12; format: cell-based, SARS-CoV-2; remark: listed apart in the source
SARS-CoV-1 nsp12 = SARS-CoV-1 nsp12 (Severe acute respiratory syndrome coronavirus, UniProt P0C6X7); format: binding
nsp12 RdRp = nsp12 RdRp (Severe acute respiratory syndrome coronavirus 2, UniProt P0DTD1); format: biochemical, SARS-CoV-2
MERS nsp12 = MERS nsp12 (Middle East respiratory syndrome-related coronavirus, UniProt K9N7C7); format: binding, MERS-CoV
Sequence of MERS nsp12 (K9N7C7 4378-5310 limits assumed): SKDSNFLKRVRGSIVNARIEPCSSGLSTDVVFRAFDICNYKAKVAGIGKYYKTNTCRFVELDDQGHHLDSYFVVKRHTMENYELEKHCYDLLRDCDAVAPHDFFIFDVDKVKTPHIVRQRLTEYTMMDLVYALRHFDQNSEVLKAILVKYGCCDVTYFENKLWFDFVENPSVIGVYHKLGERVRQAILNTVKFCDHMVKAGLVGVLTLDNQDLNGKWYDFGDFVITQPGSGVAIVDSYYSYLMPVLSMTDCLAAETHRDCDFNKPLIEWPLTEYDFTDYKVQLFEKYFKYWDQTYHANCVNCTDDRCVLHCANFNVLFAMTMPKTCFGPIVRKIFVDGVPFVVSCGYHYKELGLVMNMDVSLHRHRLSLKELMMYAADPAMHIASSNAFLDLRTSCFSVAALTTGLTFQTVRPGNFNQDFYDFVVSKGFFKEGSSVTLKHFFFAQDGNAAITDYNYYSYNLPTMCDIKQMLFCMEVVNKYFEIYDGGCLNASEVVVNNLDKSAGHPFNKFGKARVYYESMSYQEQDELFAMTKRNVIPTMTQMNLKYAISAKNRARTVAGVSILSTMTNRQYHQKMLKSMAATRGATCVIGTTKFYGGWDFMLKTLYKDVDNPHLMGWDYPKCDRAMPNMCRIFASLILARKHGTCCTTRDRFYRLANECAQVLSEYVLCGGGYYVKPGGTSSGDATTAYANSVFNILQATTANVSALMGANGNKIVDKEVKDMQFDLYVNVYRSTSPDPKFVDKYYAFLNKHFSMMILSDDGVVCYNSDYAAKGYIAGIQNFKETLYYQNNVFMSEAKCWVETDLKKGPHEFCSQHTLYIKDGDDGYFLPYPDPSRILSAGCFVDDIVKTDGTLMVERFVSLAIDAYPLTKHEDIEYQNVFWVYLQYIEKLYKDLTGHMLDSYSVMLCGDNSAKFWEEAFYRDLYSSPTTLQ

With COC(=O)c1cnn2c(O)cc(Cl)nc12 [SW461448-1] the “IC50 for NiRAN-dependent AMPylation of nsp9” value (from here on “IC50 … of nsp9”) [1] was “No activity up to 500 μM”.
With O=C(O)c1cnn2c(O)cc(CCl)nc12 [SW396061-1, 5-(Chloromethyl)-7-hydroxypyrazolo[1,5-a]pyrimidine-3-carboxylic acid] the “IC50 … of nsp9” value [1] was “No activity up to 500 μM”.
For COC(=O)c1cn(C)n2c(=O)cc(CCl)nc12 [SW396262-1, Methyl 5-(chloromethyl)-1-methyl-7-oxo-1,7-dihydropyrazolo[1,5-a]pyrimidine-3-carboxylate], the IC50 [1] was over 500 µM.
For C#CCNc1cc(CCl)nc2c(C(=O)OC)cnn12 [SW395929-1, Methyl 5-(chloromethyl)-7-(prop-2-yn-1-ylamino)pyrazolo[1,5-a]pyrimidine-3-carboxylate], the “IC50 … of nsp9” value [1] was “No activity up to 500 μM”.
For COC(=O)c1cnn2c(O)cc(/C=C/C(N)=O)nc12 [SW396067-1, Methyl (E)-5-(3-amino-3-oxoprop-1-en-1-yl)-7-hydroxypyrazolo[1,5-a]pyrimidine-3-carboxylate], the “IC50 … of nsp9” value [1] was “No activity up to 500 μM”.
In the case of COC(=O)c1cnn2c(O)cc(C(C)Cl)nc12 (stereo not shown) [SW396272-1, Methyl 5-(1-chloroethyl)-7-hydroxypyrazolo[1,5-a]pyrimidine-3-carboxylate], the “IC50 … of nsp9” value [1] is reported as “No activity up to 500 μM”.
With COC(=O)c1cnn2c(O)cc(/C=C/C(=O)OC(C)(C)C)nc12 [SW396065-1, Methyl (E)-5-(3-(tert-butoxy)-3-oxoprop-1-en-1-yl)-7-hydroxypyrazolo[1,5-a]pyrimidine-3-carboxylate] the “IC50 … of nsp9” value [1] was “No activity up to 500 μM”.
For COC(=O)c1cnn2c(OC)cc(CCl)nc12 [SW396271-1, Methyl 5-(chloromethyl)-7-methoxypyrazolo[1,5-a]pyrimidine-3-carboxylate], the IC50 [1] was over 500 µM.
For C#CCNC(=O)c1cnn2c(O)cc(CCl)nc12 [SW396062-1, 5-(Chloromethyl)-7-hydroxy-N-(prop-2-yn-1-yl)pyrazolo[1,5-a]pyrimidine-3-carboxamide], the IC50 [1] was over 500 µM.
With COC(=O)c1cnn2c(O)cc(C#N)nc12 [SW396744-1, Methyl 5-cyano-7-hydroxypyrazolo[1,5-a]pyrimidine-3-carboxylate] the “IC50 … of nsp9” value [1] was “No activity up to 500 μM”.
For C#CCOC(=O)c1cnn2c(O)cc(CCl)nc12 [NCI-3, Prop-2-yn-1-yl 5-(chloromethyl)-7-hydroxypyrazolo[1,5-a]pyrimidine-3-carboxylate], the “binding to nsp12 in cells (biotinylation after click reaction)” value (Flag-nsp12 [2]) was “major biotinylated species corresponding to nsp12” and the IC50 [1] was 10.4 µM.
In the case of CCC(CC)COC(=O)[C@H](C)N[P@](=O)(OC[C@H]1O[C@@](C#N)(c2ccc3c(N)ncnn23)[C@H](O)[C@@H]1O)Oc1ccccc1 [remdesivir, reference compound], the EC50 (SARS-CoV-2-Wu-1-zsGreen) is listed as 0.64 µM and the “inhibition of NiRAN activity” value (NiRAN) is listed as “inhibit NiRAN activity”.
COC(=O)c1cnn2c(O)cc(CO)nc12 [SW396063-1, Methyl 7-hydroxy-5-(hydroxymethyl)pyrazolo[1,5-a]pyrimidine-3-carboxylate] showed an IC50 [1] of 371 µM.
With O=c1cc(CCl)nc2ccc(Cl)cn12 [NCI-1] the “effect on thermal stability of nsp12” value (nsp12) was “increase in the thermal stability of nsp12”, the “inhibition of NiRAN-dependent RNAylation of nsp9” value [3] was “inhibition of NiRAN-dependent RNAylation of nsp9” and the “covalent binding to nsp12 (intact mass shift)” value (SARS-CoV-2 nsp12) was “covalent addition”. It also gave an IC50 [1] of 7.32 µM.
For COC(=O)c1cnn2c(O)cc(CCO)nc12 [SW398310-1, Methyl 7-hydroxy-5-(2-hydroxyethyl)pyrazolo[1,5-a]pyrimidine-3-carboxylate], the “IC50 … of nsp9” value [1] was “No activity up to 500 μM”.
In the case of CC(C)(C)[C@H](NC(=O)C(F)(F)F)C(=O)N1C[C@H]2[C@@H]([C@H]1C(=O)N[C@H](C#N)C[C@@H]1CCNC1=O)C2(C)C [nirmatrelvir], the Ki (SARS-CoV-2 main protease) is given as 0.003 µM and the EC50 (SARS-CoV-2) is given as 0.075 µM.
In the case of COC(=O)c1cnn2c(O)cc(CCCl)nc12 [SW398309-1, Methyl 5-(2-chloroethyl)-7-hydroxypyrazolo[1,5-a]pyrimidine-3-carboxylate], the “IC50 … of nsp9” value [1] is reported as “No activity up to 500 μM”.
For COC(=O)c1cnn2c(O)cc(/C=C/C(=O)O)nc12 [SW396066-1, (E)-3-(7-hydroxy-3-(methoxycarbonyl)pyrazolo[1,5-a]pyrimidin-5-yl)acrylic acid], the “IC50 … of nsp9” value [1] was “No activity up to 500 μM”.
In the case of COC(=O)c1cnn2c(O)cc(CCl)nc12 [NCI-2, methyl 5-(chloromethyl)-7-hydroxypyrazolo[1,5-a]pyrimidine-3-carboxylate], the “effect on thermal stability of nsp12” value (nsp12) is reported as “increase in the thermal stability of nsp12”, the “binding to SelO” value (human SelO) is reported as “fails to bind” and the “RNAylation activity of Flag-nsp12 from treated cells” value (Flag-nsp12 [4]) is reported as “marked reduction in its ability to RNAylate nsp9”. For the same molecule, the “covalent binding to SARS-CoV-1 nsp12” value (SARS-CoV-1 nsp12) was “covalently binds”, the “effect on nsp12 polymerase (RdRp) activity” value (nsp12 RdRp) was “did not impact nsp12 polymerase activity” and the “inhibition of NiRAN-dependent RNAylation of nsp9” value [3] was “inhibition of NiRAN-dependent RNAylation of nsp9”. The “covalent binding to nsp12 (intact mass shift)” value (SARS-CoV-2 nsp12) was “covalent addition”, the “concentration at which inhibition of viral replication was observed” value (SARS-CoV-2-Wu-1-zsGreen) was 200 µM and the EC50 (SARS-CoV-2-Wu-1-zsGreen) was over 200 µM. For the same molecule, the Ki [1] was 16.3 µM, the IC50 [1] was 4.36 µM and the kinact ([1]; read-out: rate of inactivation constant kinact) was 0.0024 s⁻¹. For the same molecule, the kinact/KI ([1]; read-out: second order rate constant kinact/Ki) was 147 M⁻¹ s⁻¹ and the “binding to MERS NiRAN (nsp12)” value (MERS nsp12) was “fails to bind”.
In the case of COC(=O)c1cnn2c(O)cc(C=O)nc12 [SW396064-1, Methyl 5-formyl-7-hydroxypyrazolo[1,5-a]pyrimidine-3-carboxylate], the “IC50 … of nsp9” value [1] is reported as “No activity up to 500 μM”.
For C#Cc1cc(O)n2ncc(C(=O)OC)c2n1 [SW461447-1, Methyl 5-ethynyl-7-hydroxypyrazolo[1,5-a]pyrimidine-3-carboxylate], the “IC50 … of nsp9” value [1] was “No activity up to 500 μM”.
